{"source": "paper PMC3130785", "about": "“Small Compound 6-O-Angeloylplenolin Induces Mitotic Arrest and Exhibits Therapeutic Potentials in Multiple Myeloma” (PLoS ONE, 2011)", "tested_on": "phosphorylated H3 (pH3)", "experiment": "Western blotting of mitotic marker", "format": "cell-based, human", "conditions": "U266, MM.1S and CD138+ primary cells; 24 h", "method": "Cell pellets were lysed in RIPA buffer containing 50 mM Tris pH 8.0, 150 mM NaCl, 0.1% SDS, 0.5% deoxycholate, 1% NP-40, 1 mM DTT, 1 mM NaF, 1 mM sodium vanadate, and protease inhibitors cocktail (Sigma). For immunoprecipitations, cells were lysed on ice for 15 minutes in RIPA buffer. Lysates were centrifuged. The supernatant was incubated with indicated antibodies overnight, after which protein A/G Plus beads (Santa Cruz Biotechnology) were added and incubated for 3 h. The beads were washed 4 times in RIPA buffer. Then the beads were resuspended in 1× sample buffer and boiled for 3 min. Protein extracts were quantitated and loaded on 8% to 12% sodium dodecyl sulfate polyacrylamide gel, electrophoresed, and transferred to a nitrocellulose membrane (Whatman). The membrane was incubated with primary antibody, washed, and incubated with horseradish peroxidase (HRP)–conjugated secondary antibody (Pierce). Detection was performed by using a chemiluminescent western detection kit (Cell Signaling). […]\nFigure 2 6-OAP induces mitotic arrest in MM cells. […] Cell cycle distribution was determined by flow cytometry. […] Cell cycle distribution was determined by flow cytometry. […]", "data": [{"compound": "CC=C(C)C(=O)OC1C2C(CC(C)C3C=CC(=O)C31C)OC(=O)C2C", "note": "(stereo not shown) [6-OAP, 6-O-angeloylplenolin]", "values": [{"measurement": "expression of pH3", "value": "up-regulated pH3"}]}]}
